Values after ≈ are worked out from the molar mass of the structure shown.
Assays:
[1] = target: T1, Indoleamine 2,3-dioxygenase 1 (Homo sapiens, UniProt P14902); assay: Inhibition of IDO1 (unknown origin) using L-tryptophan substrate incubated for 60 mins by HPLC; conditions: read-out: IC50
[2] = target: T1, Indoleamine 2,3-dioxygenase 1; assay: Inhibition of IDO1 (unknown origin) using L-tryptophan substrate incubated for 60 mins in presence of 0.01% Triton-X by HPLC; conditions: read-out: IC50
[3] = target: T1, Indoleamine 2,3-dioxygenase 1; assay: Inhibition of IDO1 (unknown origin) using L-tryptophan substrate incubated for 60 mins in presence of 5 mM GSH by HPLC
[4] = target: Tryptophan 2,3-dioxygenase (Mus musculus, UniProt P48776); assay: Inhibition of mouse TDO expressed in mouse P815B cells using L-tryptophan substrate incubated for 24 hrs by HPLC based cellular assay; format: cell-based; conditions: p815b
Sequence of Tryptophan 2,3-dioxygenase (P48776 whole entry): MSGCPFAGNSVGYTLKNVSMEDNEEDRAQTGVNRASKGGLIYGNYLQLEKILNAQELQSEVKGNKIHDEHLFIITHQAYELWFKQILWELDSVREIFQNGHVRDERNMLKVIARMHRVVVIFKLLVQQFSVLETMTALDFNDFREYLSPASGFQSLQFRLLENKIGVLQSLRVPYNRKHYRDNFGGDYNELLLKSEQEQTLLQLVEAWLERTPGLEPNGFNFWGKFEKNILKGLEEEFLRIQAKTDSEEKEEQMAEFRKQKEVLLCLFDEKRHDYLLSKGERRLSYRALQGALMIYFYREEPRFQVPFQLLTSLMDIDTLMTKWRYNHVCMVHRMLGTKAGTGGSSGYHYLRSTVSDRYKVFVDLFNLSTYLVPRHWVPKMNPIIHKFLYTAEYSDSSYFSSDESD

[5] = target: Indoleamine 2,3-dioxygenase 1 (Mus musculus, UniProt P28776); assay: Inhibition of mouse IDO1 expressed in mouse P815B cells using L-tryptophan substrate incubated for 18 hrs by HPLC based cellular assay; format: cell-based; conditions: p815b
Sequence of Indoleamine 2,3-dioxygenase 1 (Mus musculus, UniProt P28776) (P28776 whole entry): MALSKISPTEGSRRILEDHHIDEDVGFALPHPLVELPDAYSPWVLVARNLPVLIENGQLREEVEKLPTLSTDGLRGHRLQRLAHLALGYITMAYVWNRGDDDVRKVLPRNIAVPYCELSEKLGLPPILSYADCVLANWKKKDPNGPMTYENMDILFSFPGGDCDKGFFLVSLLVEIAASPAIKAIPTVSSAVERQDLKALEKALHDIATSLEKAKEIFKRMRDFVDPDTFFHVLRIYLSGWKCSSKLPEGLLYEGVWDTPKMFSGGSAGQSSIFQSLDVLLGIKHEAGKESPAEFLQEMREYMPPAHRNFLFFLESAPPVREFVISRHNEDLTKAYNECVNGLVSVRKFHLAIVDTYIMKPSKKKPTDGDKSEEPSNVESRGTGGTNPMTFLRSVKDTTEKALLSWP

[6] = Solubility of the compound in pH 6.5 phosphate buffer containing 5% DMSO; conditions: phosphate buffer containing 5% DMSO
[7] = Cytotoxicity against mouse P815B cells after 24 hrs by MTS/PMS assay; conditions: P815B cells

T1 sequence (P14902 whole entry): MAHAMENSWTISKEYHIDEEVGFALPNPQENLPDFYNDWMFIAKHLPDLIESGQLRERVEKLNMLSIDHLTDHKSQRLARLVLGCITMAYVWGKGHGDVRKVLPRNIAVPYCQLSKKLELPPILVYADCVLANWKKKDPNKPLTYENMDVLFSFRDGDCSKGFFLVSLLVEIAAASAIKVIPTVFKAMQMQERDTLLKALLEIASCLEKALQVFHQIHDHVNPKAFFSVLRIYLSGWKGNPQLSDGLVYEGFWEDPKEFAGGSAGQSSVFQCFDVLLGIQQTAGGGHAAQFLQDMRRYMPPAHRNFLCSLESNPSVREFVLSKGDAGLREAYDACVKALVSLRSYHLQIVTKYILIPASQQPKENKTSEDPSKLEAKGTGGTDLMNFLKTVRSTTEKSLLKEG

## N#CC(C#N)=C1c2cc(S(N)(=O)=O)cc([N+](=O)[O-])c2-c2c1cc(S(N)(=O)=O)cc2[N+](=O)[O-]
[1]
  IC50: 1 µM
[2]
  IC50: 0.96 µM
[3]
  IC50: 1.6 µM
[4]
  IC50: Not Active
[5]
  IC50: Not Active
[6]
  solubility: 250 µM (≈ 119 µg/mL)
[7]
  CC50 at 24 h: > 25 µM

## O=c1ccsn1-c1cccc(Cl)c1F
[1]
  IC50: 11 µM
[2]
  IC50: 4.8 µM
[3]
  IC50: 200 µM
[4]
  IC50: Not Active
[5]
  IC50: Not Active
[6]
  solubility: 1000 µM (≈ 230 µg/mL)
[7]
  CC50 at 24 h: 10 µM

Reference: ChEMBL document CHEMBL3351924, “Detailed analysis and follow-up studies of a high-throughput screening for indoleamine 2,3-dioxygenase 1 (IDO1) inhibitors” (Eur J Med Chem, 2014)
